Measured values published in US20250353864A1, “INDAZOLE CONTAINING MACROCYCLES AND THEIR USE” (BLOSSOMHILL THERAPEUTICS, INC., priority 2022, published 2025).

Experiments:
Assay type in all cases: biochemical
CLK2 = CLK2 (Homo sapiens (Human), UniProt P49760); assay: Inhibition of CLK2 kinase activity evaluated at Nanosyn (ADP-Glo); conditions: ADP-Glo luminescence
Method in brief: (§1)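 ADP-Glo luminescence (40 min depletion, 10 min detection) quantifies ADP from ATP-initiated phosphorylation of substrate by each CLK isoform in HEPES pH 7.5 buffer, 1% DMSO, assay-specific incubation. %-inhibition calculated against uninhibited and enzyme-free controls.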

EGFR Δ746-750 mutant = EGFR Δ746-750 mutant (Homo sapiens (Human), UniProt P00533, DEL746-750); assay: HotSpot radiometric kinase assay, EGFR Δ746-750 mutant; conditions: 10 μM ATP
Chain of EGFR Δ746-750 mutant (P00533 other isoform, or with tags, fused parts or gaps del 1-668/del 746-750 limits assumed): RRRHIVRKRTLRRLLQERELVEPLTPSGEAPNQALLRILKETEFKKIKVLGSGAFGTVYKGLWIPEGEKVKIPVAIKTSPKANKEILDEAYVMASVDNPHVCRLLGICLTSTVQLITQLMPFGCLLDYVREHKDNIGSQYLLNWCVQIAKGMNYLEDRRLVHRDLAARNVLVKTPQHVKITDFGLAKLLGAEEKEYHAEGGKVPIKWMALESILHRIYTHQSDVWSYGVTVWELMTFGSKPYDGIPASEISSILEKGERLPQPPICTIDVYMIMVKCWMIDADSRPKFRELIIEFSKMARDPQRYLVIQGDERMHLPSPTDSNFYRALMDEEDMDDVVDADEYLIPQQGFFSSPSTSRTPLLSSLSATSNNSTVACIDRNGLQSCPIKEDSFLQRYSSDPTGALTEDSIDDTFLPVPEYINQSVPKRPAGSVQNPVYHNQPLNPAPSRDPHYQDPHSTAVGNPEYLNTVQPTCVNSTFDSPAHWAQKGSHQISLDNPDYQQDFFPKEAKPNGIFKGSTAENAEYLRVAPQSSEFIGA
Method in brief: (§2)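 IC50 values derive from curve fits of 33P incorporation measured by P81 filter binding. ATP was 10 μM final; incubation lasted 120 min at room temperature after ~20 min compound preincubation.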

EGFR L858R/T790M mutant = EGFR L858R/T790M mutant (Homo sapiens (Human), UniProt P00533, L858R/T790M); assay: HotSpot radiometric kinase assay, EGFR L858R/T790M mutant; conditions: 10 μM ATP
Method in brief: as §2

[1] = molecular target: EGFR L858R/T790M/C797S mutant (Homo sapiens (Human), UniProt P00533, C797S/L858R/T790M); assay: HotSpot radiometric kinase assay, EGFR L858R/T790M/C797S mutant; conditions: 10 μM ATP
Method in brief: as §2

EGFR (D770_N771insNPG) = EGFR (D770_N771insNPG) (Homo sapiens (Human), UniProt P00533, INS770NPG); assay: HotSpot radiometric kinase assay, EGFR (D770_N771insNPG); conditions: 10 μM ATP, read-out: EGFR (Δ770_N771insNPG) IC50
Chain of EGFR (D770_N771insNPG) (P00533 other isoform, or with tags, fused parts or gaps del 1-668/ins NPG behind 770 limits assumed): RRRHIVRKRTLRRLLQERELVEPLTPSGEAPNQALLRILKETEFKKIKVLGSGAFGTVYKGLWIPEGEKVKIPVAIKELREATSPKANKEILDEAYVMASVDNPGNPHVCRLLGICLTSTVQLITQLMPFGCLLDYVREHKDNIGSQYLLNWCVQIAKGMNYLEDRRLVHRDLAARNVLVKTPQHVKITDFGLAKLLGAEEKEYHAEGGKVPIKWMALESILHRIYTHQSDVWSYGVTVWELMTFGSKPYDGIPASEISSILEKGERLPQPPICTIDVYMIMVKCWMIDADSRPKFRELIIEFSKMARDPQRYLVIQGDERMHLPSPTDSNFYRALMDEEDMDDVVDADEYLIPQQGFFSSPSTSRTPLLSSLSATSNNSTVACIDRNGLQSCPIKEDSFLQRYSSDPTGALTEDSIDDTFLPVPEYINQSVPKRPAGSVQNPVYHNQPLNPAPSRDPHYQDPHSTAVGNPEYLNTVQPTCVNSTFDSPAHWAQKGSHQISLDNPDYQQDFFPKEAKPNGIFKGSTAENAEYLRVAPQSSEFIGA
Method in brief: as §2

CLK1 = CLK1 (Homo sapiens (Human), UniProt P49759); assay: Inhibition of CLK1 kinase activity evaluated at Nanosyn (ADP-Glo); conditions: ADP-Glo luminescence
Chain of CLK1 (P49759 whole entry): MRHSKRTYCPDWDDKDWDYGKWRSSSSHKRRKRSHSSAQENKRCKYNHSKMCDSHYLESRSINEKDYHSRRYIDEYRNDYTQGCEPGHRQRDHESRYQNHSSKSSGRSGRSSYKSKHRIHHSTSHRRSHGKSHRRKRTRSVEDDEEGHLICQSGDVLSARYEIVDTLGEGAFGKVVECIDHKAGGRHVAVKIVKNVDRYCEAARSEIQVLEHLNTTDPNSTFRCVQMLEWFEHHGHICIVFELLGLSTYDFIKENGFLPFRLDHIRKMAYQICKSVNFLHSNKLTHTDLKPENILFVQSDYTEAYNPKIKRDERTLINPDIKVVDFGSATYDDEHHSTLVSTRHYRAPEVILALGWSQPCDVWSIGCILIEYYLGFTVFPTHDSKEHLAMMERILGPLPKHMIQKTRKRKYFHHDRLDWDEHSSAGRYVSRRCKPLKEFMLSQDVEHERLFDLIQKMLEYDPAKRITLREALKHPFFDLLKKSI
Method in brief: as §1

ALK = ALK (Homo sapiens (Human), UniProt Q9UM73); assay: HotSpot radiometric kinase assay, inhibition of ALK kinase activity; conditions: 10 μM ATP
Protocol: Briefly, specific kinase/substrate pairs along with required cofactors were prepared in reaction buffer; 20 mM Hepes pH 7.5, 10 mM […], 1 mM EGTA, 0.02% Brij35, 0.02 mg/ml BSA, 0.1 mM Na3VO4, 2 mM DTT, 1% DMSO. Compounds were delivered into the reaction, followed […] later by addition of a mixture of ATP (Sigma, St. Louis MO) and ^33P ATP (Perkin Elmer, Waltham MA) to a final concentration of 10 μM. Reactions were carried out at room temperature for 120 min, followed by spotting of the reactions onto P81 ion exchange filter paper (Whatman Inc., Piscataway, NJ). Unbound phosphate was removed by extensive washing of filters in 0.75% phosphoric acid. […] IC50 values and curve fits were obtained using Prism (GraphPad Software).

EGFR WT = EGFR WT (Homo sapiens (Human), UniProt P00533); assay: HotSpot radiometric kinase assay (Reaction Biology), EGFR WT; conditions: 10 μM ATP
Chain of EGFR WT (P00533 25-1210): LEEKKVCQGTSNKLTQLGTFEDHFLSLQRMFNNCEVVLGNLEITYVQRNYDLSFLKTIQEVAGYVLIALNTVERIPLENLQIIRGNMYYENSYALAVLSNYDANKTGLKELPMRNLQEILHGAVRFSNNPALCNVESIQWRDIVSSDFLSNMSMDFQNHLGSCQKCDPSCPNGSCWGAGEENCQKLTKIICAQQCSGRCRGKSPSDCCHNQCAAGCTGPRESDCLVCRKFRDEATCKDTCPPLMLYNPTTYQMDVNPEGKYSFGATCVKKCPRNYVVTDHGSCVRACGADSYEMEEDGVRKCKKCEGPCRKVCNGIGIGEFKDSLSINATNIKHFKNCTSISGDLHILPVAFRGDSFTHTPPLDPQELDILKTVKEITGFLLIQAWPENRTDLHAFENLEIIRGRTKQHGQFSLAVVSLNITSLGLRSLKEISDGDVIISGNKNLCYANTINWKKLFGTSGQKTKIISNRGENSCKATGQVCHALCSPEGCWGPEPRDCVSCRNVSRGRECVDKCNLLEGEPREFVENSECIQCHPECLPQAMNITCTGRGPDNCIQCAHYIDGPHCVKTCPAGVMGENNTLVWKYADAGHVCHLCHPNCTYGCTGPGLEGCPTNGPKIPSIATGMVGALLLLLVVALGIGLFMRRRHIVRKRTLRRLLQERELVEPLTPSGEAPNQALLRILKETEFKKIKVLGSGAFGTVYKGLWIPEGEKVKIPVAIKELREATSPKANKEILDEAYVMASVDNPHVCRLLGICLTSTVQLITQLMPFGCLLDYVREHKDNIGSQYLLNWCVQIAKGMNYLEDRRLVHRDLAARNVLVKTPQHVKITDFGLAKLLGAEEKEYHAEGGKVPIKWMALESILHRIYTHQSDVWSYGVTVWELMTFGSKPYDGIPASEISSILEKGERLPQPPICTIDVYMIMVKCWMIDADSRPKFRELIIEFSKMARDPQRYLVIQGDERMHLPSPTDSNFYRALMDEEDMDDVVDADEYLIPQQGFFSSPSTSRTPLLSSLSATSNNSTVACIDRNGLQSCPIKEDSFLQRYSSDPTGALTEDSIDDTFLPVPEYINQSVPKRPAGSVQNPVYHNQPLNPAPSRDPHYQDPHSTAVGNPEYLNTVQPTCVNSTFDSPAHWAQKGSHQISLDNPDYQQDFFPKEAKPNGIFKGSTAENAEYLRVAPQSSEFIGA
Method in brief: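 Compounds were preincubated ~20 min with kinase/substrate in pH 7.5 Hepes buffer (MgCl2, EGTA, Brij35, BSA, Na3VO4, DTT, 1% DMSO), then ATP plus 33P-ATP was added to 10 μM final. After 120 min at room temperature, reactions were spotted on P81 filters and washed; IC50 values came from curve fits.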

EGFR L858R mutant = EGFR L858R mutant (Homo sapiens (Human), UniProt P00533, L858R); assay: HotSpot radiometric kinase assay, EGFR L858R mutant; conditions: 10 μM ATP
Method in brief: as §2

CLK4 = CLK4 (Homo sapiens (Human), UniProt Q9HAZ1); assay: Inhibition of CLK4 kinase activity evaluated at Nanosyn (ADP-Glo); conditions: ADP-Glo luminescence
Chain of CLK4 (Q9HAZ1 whole entry): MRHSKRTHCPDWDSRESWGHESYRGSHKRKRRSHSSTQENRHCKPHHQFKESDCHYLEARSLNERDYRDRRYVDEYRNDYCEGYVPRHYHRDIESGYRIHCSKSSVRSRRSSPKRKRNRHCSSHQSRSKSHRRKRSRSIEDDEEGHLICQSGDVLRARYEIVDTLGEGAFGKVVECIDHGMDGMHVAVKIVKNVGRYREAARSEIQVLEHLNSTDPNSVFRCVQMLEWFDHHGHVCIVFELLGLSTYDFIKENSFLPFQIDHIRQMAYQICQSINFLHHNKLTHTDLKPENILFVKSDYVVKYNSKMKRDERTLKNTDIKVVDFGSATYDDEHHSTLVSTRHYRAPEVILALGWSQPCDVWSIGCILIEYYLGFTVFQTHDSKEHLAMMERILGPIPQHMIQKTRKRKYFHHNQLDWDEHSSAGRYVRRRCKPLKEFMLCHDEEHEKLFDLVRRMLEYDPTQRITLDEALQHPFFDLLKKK
Method in brief: as §1

[2] = molecular target: EGFR Δ746-750/C797S mutant (Homo sapiens (Human), UniProt P00533, C797S/DEL746-750); assay: HotSpot radiometric kinase assay, EGFR Δ746-750/C797S mutant; conditions: 10 μM ATP
Chain of EGFR Δ746-750/C797S mutant (P00533 other isoform, or with tags, fused parts or gaps C797S/del 1-668/del 746-750 limits assumed): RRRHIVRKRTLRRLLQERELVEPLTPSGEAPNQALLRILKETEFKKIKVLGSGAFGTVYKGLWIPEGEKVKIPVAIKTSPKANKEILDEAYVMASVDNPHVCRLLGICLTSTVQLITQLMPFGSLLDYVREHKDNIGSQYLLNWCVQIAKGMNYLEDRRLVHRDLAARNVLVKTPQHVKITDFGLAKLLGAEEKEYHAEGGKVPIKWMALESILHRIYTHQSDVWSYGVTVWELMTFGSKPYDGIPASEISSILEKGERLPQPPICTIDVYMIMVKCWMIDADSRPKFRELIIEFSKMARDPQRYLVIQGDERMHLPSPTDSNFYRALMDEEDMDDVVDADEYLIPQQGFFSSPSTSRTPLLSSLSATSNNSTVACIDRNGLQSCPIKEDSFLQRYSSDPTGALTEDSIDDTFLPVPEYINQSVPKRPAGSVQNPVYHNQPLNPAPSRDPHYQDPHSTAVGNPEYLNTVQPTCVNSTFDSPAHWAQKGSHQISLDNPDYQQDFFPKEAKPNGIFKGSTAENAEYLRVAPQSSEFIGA
Method in brief: as §2

CLK3 = CLK3 (Homo sapiens (Human), UniProt P49761); assay: Inhibition of CLK3 kinase activity evaluated at Nanosyn (ADP-Glo); conditions: ADP-Glo luminescence
Chain of CLK3 (P49761 whole entry): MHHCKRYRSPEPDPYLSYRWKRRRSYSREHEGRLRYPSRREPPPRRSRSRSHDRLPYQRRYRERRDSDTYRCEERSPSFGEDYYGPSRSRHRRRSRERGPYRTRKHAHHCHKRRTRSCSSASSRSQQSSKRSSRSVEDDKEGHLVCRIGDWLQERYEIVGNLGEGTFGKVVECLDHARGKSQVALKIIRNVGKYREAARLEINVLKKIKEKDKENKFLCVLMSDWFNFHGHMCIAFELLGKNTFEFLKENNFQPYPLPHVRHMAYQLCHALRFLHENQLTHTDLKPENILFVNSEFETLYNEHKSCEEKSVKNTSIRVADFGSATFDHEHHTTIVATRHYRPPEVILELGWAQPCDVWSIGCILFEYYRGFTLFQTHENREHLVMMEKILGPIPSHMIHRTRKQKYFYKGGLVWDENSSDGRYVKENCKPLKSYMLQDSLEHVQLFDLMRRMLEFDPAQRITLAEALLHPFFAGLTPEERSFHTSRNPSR
Method in brief: as §1

Chain of CLK2 (P49760 whole entry, canonical isoform): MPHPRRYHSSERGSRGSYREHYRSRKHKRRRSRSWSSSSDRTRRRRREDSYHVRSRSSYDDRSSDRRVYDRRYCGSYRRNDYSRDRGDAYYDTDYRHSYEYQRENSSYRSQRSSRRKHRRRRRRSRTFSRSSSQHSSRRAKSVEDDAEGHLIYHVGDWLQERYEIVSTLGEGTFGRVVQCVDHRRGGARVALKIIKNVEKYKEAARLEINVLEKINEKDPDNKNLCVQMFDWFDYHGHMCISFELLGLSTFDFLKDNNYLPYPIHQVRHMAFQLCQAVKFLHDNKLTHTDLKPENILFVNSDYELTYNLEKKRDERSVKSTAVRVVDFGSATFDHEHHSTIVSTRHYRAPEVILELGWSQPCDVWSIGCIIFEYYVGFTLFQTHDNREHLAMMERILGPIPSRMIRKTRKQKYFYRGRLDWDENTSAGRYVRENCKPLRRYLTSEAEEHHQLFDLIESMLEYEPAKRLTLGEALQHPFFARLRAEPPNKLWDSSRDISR

Compound | IC50 (CLK2) | IC50 (EGFR Δ746-750 mutant) | IC50 (EGFR L858R/T790M mutant) | IC50 [1] | IC50 (EGFR (D770_N771insNPG)) | IC50 (CLK1) | IC50 (ALK) | IC50 (EGFR WT) | IC50 (EGFR L858R mutant) | IC50 (CLK4) | IC50 [2] | IC50 (CLK3)
C[C@H]1CN(C)Cc2c(c(C#N)nn2C)/C=C/c2n[nH]c3ccc(cc23)-c2cnn(C)c2O1 [Example 159, (10S,17E)-8,10,12,14-tetramethyl-2,10,11,12,13,14-hexahydro-8H-3,5-ethenotripyrazolo[3,4-f:3′,4′-j:4″,3″-n][1,4]oxazacyclopentadecine-16-carbonitrile] | 0.07 nM | 27 nM | 1.54 nM | 0.74 nM | 116 nM | 0.14 nM | 3.72 nM | 160 nM | 34.7 nM | 0.38 nM | 14.1 nM | 1000 nM
CCN1Cc2c(c(OC(C)C)nn2[C@@H](C)CO)/C=C/c2n[nH]c3cc(F)c(cc23)-c2cnn(C)c2O[C@@H](C)C1 [Example 219, (2S)-2-{(10S,17E)-12-ethyl-19-fluoro-8,10-dimethyl-16-[(propan-2-yl)oxy]-2,8,10,11,12,13-hexahydro-14H-3,5-ethenotripyrazolo[3,4-f:3′,4′-j:4″,3″- n][1,4]oxazacyclopentadecin-14-yl}propan-1-ol] | 4.51 nM | 3.02 nM | 5.3 nM | 3.84 nM | 21.2 nM | 2.05 nM | 1.31 nM | 7.25 nM | 4.73 nM | 5.62 nM | 5.13 nM | 146 nM
CC(C)Oc1nn(CCO)c2c1/C=C/c1n[nH]c3ccc(cc13)-c1cnn(C)c1O[C@@H](C)CN(C)C2 [Example 147, 2-{(10S,17E)-8,10,12-trimethyl-16-[(propan-2-yl)oxy]-2,8,10,11,12,13-hexahydro-14H-3,5-ethenotripyrazolo[3,4-f:3′,4′-j:4″,3″-n][1,4]oxazacyclopentadecin-14-yl}ethan-1-ol] | 0.02 nM | 0.59 nM | 0.11 nM | 0.19 nM | 9.08 nM | 0.13 nM | 0.99 nM | 3.16 nM | 0.44 nM | 0.32 nM | 0.39 nM | 5.21 nM
CCN1Cc2c(c(OC(C)C)nn2CC(N)=O)/C=C/c2n[nH]c3ccc(cc23)-c2cnn(C)c2O[C@@H](C)C1 [Example 232, 2-{(10S,17E)-12-ethyl-8,10-dimethyl-16-[(propan-2-yl)oxy]-2,8,10,11,12,13-hexahydro-14H-3,5-ethenotripyrazolo[3,4-f:3′,4′-j:4″,3″-n][1,4]oxazacyclopentadecin-14-yl}acetamide] | 0.45 nM | 0.08 nM | 0.13 nM | 0.11 nM | 1.39 nM | 0.77 nM | 0.9 nM | 0.41 nM | 0.22 nM | 1.49 nM | 0.55 nM | 42 nM
CC(C)Oc1nn([C@@H](C)CO)c2c1/C=C/c1n[nH]c3cc(F)c(cc13)-c1cnn(C)c1O[C@@H](C)CN(C)C2 [Example 200, (2S)-2-{(10S,17E)-19-fluoro-8,10,12-trimethyl-16-[(propan-2-yl)oxy]-2,8,10,11,12,13-hexahydro-14H-3,5-ethenotripyrazolo[3,4-f:3′,4′-j:4″,3″-n][1,4]oxazacyclopentadecin-14-yl}propan-1-ol] | 1 nM | 4.08 nM | 1.41 nM | 0.69 nM | 59.9 nM | 0.48 nM | 1.49 nM | 6.46 nM | 2.01 nM | 1.53 nM | 1.93 nM | 194 nM
CCOc1nn([C@@H](C)CO)c2c1/C=C/c1n[nH]c3cc(F)c(cc13)-c1cnn(C)c1O[C@@H](C)CN(C)C2 [Example 214, (2S)-2-[(10S,17E)-16-ethoxy-19-fluoro-8,10,12-trimethyl-2,8,10,11,12,13-hexahydro-14H-3,5-ethenotripyrazolo[3,4-f:3′,4′-j:4″,3″- n][1,4]oxazacyclopentadecin-14-yl]propan-1-ol] | 2.51 nM | 0.22 nM | 0.2 nM | 0.17 nM | 8.31 nM | 2.37 nM | 2.47 nM | 0.77 nM | 0.35 nM | 7.25 nM | 0.48 nM | 592 nM
Cc1onc2c1/C=C/c1n[nH]c3ccc(cc13)-c1cnn(C)c1O[C@@H](C)CN(C)C2 [Example 134, (10S,17E)-8,10,12,16-tetramethyl-2,8,10,11,12,13-hexahydro-3,5-etheno[1,2]oxazolo[3,4-f]dipyrazolo[3,4-j:4′,3′-n][1,4]oxazacyclopentadecine] | 0.19 nM | 173 nM | 24 nM | 12.6 nM | > 1000 nM | 0.29 nM | 21.6 nM | 1210 nM | 182 nM | 0.61 nM | 90.8 nM | 230 nM
CC(C)Oc1nn(CCO)c2c1/C=C/c1n[nH]c3cc(F)c(cc13)-c1cnn(C)c1O[C@@H](C)CN(C)C2 [Example 181, 2-{(10S,17E)-19-fluoro-8,10,12-trimethyl-16-[(propan-2-yl)oxy]-2,8,10,11,12,13-hexahydro-14H-3,5-ethenotripyrazolo[3,4-f:3′,4′-j:4″,3″- n][1,4]oxazacyclopentadecin-14-yl}ethan-1-ol] | 0.68 nM | 2.23 nM | 1.29 nM | 2.5 nM | 84.4 nM | 0.87 nM | 1.05 nM | 12.5 nM | 1.8 nM | 2.6 nM | 1.68 nM | 56.2 nM
C[C@H]1CN(C)Cc2c(c(OCC#N)nn2C)/C=C/c2n[nH]c3ccc(cc23)-c2cnn(C)c2O1 [Example 163, {[(10S,17E)-8,10,12,14-tetramethyl-2,10,11,12,13,14-hexahydro-8H-3,5-ethenotripyrazolo[3,4-f:3′,4′-j:4″,3″-n][1,4]oxazacyclopentadecin-16-yl]oxy}acetonitrile] | 0.06 nM | 7.33 nM | 0.85 nM | 0.86 nM | 52 nM | 0.28 nM | 1.13 nM | 29.6 nM | 8.2 nM | 0.63 nM | 4.72 nM | 215 nM
CCN1Cc2c(c(OC(C)C)nn2CCO)/C=C/c2n[nH]c3cc(F)c(cc23)-c2cnn(C)c2O[C@@H](C)C1 [Example 216, 2-{(10S,17E)-12-ethyl-19-fluoro-8,10-dimethyl-16-[(propan-2-yl)oxy]-2,8,10,11,12,13-hexahydro-14H-3,5-ethenotripyrazolo[3,4-f:3′,4′-j:4″,3″- n][1,4]oxazacyclopentadecin-14-yl}ethan-1-ol] | 1.28 nM | 0.47 nM | 0.44 nM | 0.37 nM | 28.9 nM | 2.02 nM | 2.04 nM | 2.43 nM | 2.22 nM | 5.39 nM | 0.63 nM | 115 nM
Cc1c2c(nn1C)CN(C)C[C@H](C)Oc1c(cnn1C)-c1ccc3[nH]nc(c3c1)/C=C/2 [Example 58, (10S,17E)-8,10,12,15,16-pentamethyl-2,10,11,12,13,15-hexahydro-8H-3,5-ethenotripyrazolo[3,4-f:3′,4′-j:4″,3″- n][1,4]oxazacyclopentadecine] | 0.38 nM | 11.1 nM |  | 1.57 nM | 222 nM | 0.2 nM | 4.79 nM | 49.2 nM | 9.29 nM | 0.53 nM | 7.29 nM | 160 nM
